Assays:
MDA-MB-468 cells = experiment: Viability / proliferation of MDA-MB-468 cells; type: cell-based, human; settings: MDA-MB-468 cells, increasing doses of AG1478, MTT assay
Procedure: (§1) Tissue culture. MDA-MB-468 cells were a kind gift from Dr. Rina Plattner of the University of Kentucky and were maintained in medium consisting of Dulbecco's Modified Eagle Medium containing 10% serum supreme (Fisher) and antibiotics. Cells were grown at 37° C. in 5% CO2 in air. A549 and HCC827 lung cancer cells, as well as SK-Br-3 breast cancer cells were obtained from the ATCC (American Type Culture Collection) and were grown under the same conditions. The H1650 lung cancer cell line was a kind gift from Dr. Heinz Kohler of the University of Kentucky. The Pgrmc1 ligand AG-205 was purchased from Timtec, Inc. The EGFR inhibitor AG1478 was from Biomol, Inc. and was used at a concentration range of 0.8-40 μM.
(§2) Proliferation, anchorage-independent growth and migration assays. For growth curves, cells were plated in 24 well dishes and grown in 10% serum-containing medium. At various times, the cells were harvested with trypsin and fixed with formaldehyde added to a final concentration of 3.7%. Following the harvest of the final time point, the cells from each time point were counted using a Bright-line hemocytometer (Hausser Scientific).
(§3) MTT viability assays were performed as described previously. Briefly, cells were plated in 96-well tissue culture dishes and grown in various media with different drug doses. The cells were then incubated with 0.5 mg/ml of 3-[4,5-dimethylthiazol-2-y]-2,5-diphenyltetrazolium bromide for 1.5 hours, at which time the media was removed, the precipitated crystals were dissolved in dimethyl sulfoxide, and the absorbance at 590 nm was measured using a Bio-Tek μQuant spectrophotometer.

A549 cells = experiment: Viability of A549 cells; type: cell-based, human; settings: A549 cells, single agent
Procedure: (A) Pgrmc1 (SEQ ID NO: 7) shares homology with AtMAPR2 (SEQ ID NO: 8) (underlined residues), which was the target for a screen for small molecule ligands. The putative heme-binding Tyr106 and Tyr112 are indicated with black boxes. (B) The molecular structure of AG-205 includes multiple aromatic components. (C) Spectroscopic scan of Pgrmc1 with vehicle control compared with vehicle plus 50 µM AG-205. The decrease in relative absorbance at 400 nm is consistent with an AG-205-induced change in the spectral properties of Pgrmc1-heme. The scan is representative of four separate scans using different Pgrmc1 protein preparations. The lower scan is a comparison of purified Pgrmc1 without and with the vehicle control (DMSO). Panels D (A549 cells) and E (MDA-MB-231 cells) are viability assays of cells maintained in 0.1% serum (solid line) or 10% serum (dashed line) and treated with increasing doses of AG-205. Percent viability was determined by cell counting, and “% viability” refers to the cell number relative to the untreated control.
as §1, §2, §3

Compound: COc1cc2ncnc(Nc3cccc(Cl)c3)c2cc1OC [AG1478, reference compound]
- change in proliferation rate between siCON and siPGR-transfected cells (MDA-MB-468 cells): largely blocked
- decrease in viability / cells killed (A549 cells): 25%
